These results are taken from patent US20060122185A1, “Bicyclic inhibitors of Rho kinase” (priority 2004, published 2006).

What is called Ki is the dissociation constant of the complex between target and ligand, obtained from inhibition or displacement.

ROCK, sequence (Q13464 6-553): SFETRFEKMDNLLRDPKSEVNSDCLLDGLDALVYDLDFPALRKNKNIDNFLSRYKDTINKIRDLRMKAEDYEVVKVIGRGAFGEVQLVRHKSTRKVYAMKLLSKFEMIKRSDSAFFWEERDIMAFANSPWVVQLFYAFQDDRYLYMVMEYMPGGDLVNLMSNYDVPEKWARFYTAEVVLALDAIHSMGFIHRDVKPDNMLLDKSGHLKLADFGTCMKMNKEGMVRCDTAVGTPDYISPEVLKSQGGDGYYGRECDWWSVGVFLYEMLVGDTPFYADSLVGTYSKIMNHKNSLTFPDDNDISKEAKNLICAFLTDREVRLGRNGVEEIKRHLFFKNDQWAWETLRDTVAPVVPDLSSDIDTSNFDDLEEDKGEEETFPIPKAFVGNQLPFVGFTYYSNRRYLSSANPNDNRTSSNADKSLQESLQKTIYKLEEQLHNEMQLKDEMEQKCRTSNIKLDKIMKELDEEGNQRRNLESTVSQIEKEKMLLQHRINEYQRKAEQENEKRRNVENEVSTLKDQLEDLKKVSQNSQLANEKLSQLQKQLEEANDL
ROCK I (AA 6-553), sequence (Q13464 6-553): as above

The first assay has as its target ROCK (Homo sapiens, UniProt Q13464). Kind of assay: ROCK radioactive enzyme assay (33P). Type of assay: biochemical. Particulars: 13 μM [γ-33P] ATP, 27 μM MBP, 5 nM ROCK, room temperature. The protocol:
Compounds are screened for their ability to inhibit ROCK using a standard radioactive enzyme assay. Assays are carried out in a solution containing 100 mM HEPES (pH 7.5), 10 mM MgCl2, 25 mM NaCl, 2 mM DTT and 1.5% DMSO. Final substrate concentrations in the assay are 13 μM [γ-^33P] ATP (25 mCi ^33P ATP/mmol ATP, Perkin Elmer, Cambridge, Mass./Sigma Chemicals, St Louis, Mo.) and 27 μM Myelin Basic Protein (MBP). Final enzyme concentration in the assay is 5 nM ROCK. Assays are carried out at room temperature. 1.5 μl of DMSO stock containing serial dilutions of the compound of the present invention (concentrations ranging from 10 μM to 2.6 nM) is placed in a 96 well plate. 50 μl of Solution 1 (100 mM HEPES (pH 7.5), 10 mM MgCl2, […] [γ-^33P] ATP) is added to the plate. The reaction is initiated by addition of 50 μl of Solution 2 (100 mM HEPES (pH 7.5), 10 mM MgCl2, 4 mM DTT, […] and 10 nM ROCK). After 2 hours the reaction is quenched with 50 μL of 30% trichloroacetic acid (TCA, Fisher) containing 9 mM ATP. Transfer of 140 μL of the quenched reaction to a glass fiber filter plate (Corning, Cat. No. 3511) is followed by washing 3 times with 5% TCA. 50 μL of Optima Gold scintillation fluid (Perkin Elmer) is added and the plates are counted on a Top Count (Perkin Elmer). After removing mean background values for all of the data points the data is fit using Prism software to obtain a Ki(app).
(§1) Table 3 depicts enzyme inhibition data (Ki) for certain exemplary compounds. Compound numbers in Table 3 correspond to those compounds depicted in Table 1.
Consider `O=C(Cc1ccccc1)Nc1nc(-c2n[nH]c3ncccc23)cs1` [Compound 2], for which the Ki is less than 500 nM.

Consider `COc1cccc(CC(=O)Nc2nc(-c3n[nH]c4ncccc34)cs2)c1` [Compound 3], for which the inhibitory constant (Ki) was less than 500 nM. Regarding `CCN(CC)S(=O)(=O)c1cccc(CC(=O)Nc2nc(-c3n[nH]c4ncccc34)cs2)c1` [Compound 4], the Ki was less than 500 nM.

As for `CS(=O)(=O)Nc1cccc(CC(=O)Nc2nc(-c3n[nH]c4ncccc34)cs2)c1` [Compound 5], the Ki is less than 500 nM. Still for that read-out and setting: the value for `CS(=O)(=O)Nc1ccc(F)c(CC(=O)Nc2cc(-c3n[nH]c4ncccc34)cs2)c1` [Compound 6, 2-(2-Fluoro-5-methanesulfonylamino-phenyl)-N-[4-(1H-pyrazolo[3,4-b]pyridin-3-yl)-thiophen-2-yl]-acetamide] was less than 500 nM; that for `O=C(Cc1cccc(OCCCC2CCNCC2)c1)Nc1cc(-c2n[nH]c3ncccc23)cs1` [Compound 7, 2-(3-(3-Piperidin-4-yl-propoxy)-phenyl)-N-[4-(1H-pyrazolo[3,4-b]pyridin-3-yl)-thiophen-2-yl]-acetamide] was less than 500 nM. `CS(=O)(=O)Nc1cccc(CC(=O)Nc2cc(-c3n[nH]c4ncccc34)cs2)c1` [Compound 8, 2-(3-Methanesulfonylamino-phenyl)-N-[4-(1H-pyrazolo[3,4-b]pyridin-3-yl)-thiophen-2-yl]-acetamide]: the inhibition constant (Ki) was less than 500 nM. Regarding `CS(=O)(=O)Nc1ccc(F)c(CC(=O)Nc2cc(-c3n[nH]c4nccnc34)cs2)c1` [Compound 9, N-(4-(1H-pyrazolo[3,4-b]pyrazin-3-yl)thiophen-2-yl)-2-(5-methsulfonamido-2-fluorophenyl)acetamide], the inhibitory constant (Ki) was less than 500 nM. As for `CN(C)S(=O)(=O)c1cccc(CC(=O)Nc2cc(-c3n[nH]c4ncccc34)cs2)c1` [Compound 10, 2-(3-Dimethylsulfamoyl-phenyl)-N-[4-(1H-pyrazolo[3,4-b]pyridin-3-yl)-thiophen-2-yl]-acetamide], the inhibition constant (Ki) is less than 500 nM.

For the compound `CS(=O)(=O)Nc1cccc(CNC(=O)c2cc(-c3n[nH]c4ncccc34)c[nH]2)c1` [Compound 11], the Ki is less than 500 nM. On to `CC(CO)NC(=O)c1cc(-c2n[nH]c3ncccc23)c[nH]1` (stereo not shown) [Compound 12], for which the Ki lay within 500 to 5000 nM. For the compound `COc1cccc(CNC(=O)c2cc(-c3n[nH]c4ncccc34)c[nH]2)c1` [Compound 13], the Ki is less than 500 nM. Still for that read-out and setting: the figure for `O=C(NCc1cccc(OC(F)(F)F)c1)c1cc(-c2n[nH]c3ncccc23)c[nH]1` [Compound 14] is less than 500 nM; for `O=C(NCc1ccc2c(c1)OCO2)c1cc(-c2n[nH]c3ncccc23)c[nH]1` [Compound 15] it is less than 500 nM. `O=C(NCc1cccc(F)c1)c1cc(-c2n[nH]c3ncccc23)c[nH]1` [Compound 16]: the Ki is less than 500 nM. On to `O=C(NCC1CCCCC1)c1cc(-c2n[nH]c3ncccc23)c[nH]1` [Compound 17], for which the Ki is less than 500 nM. As for `O=C(NCc1ccc(F)cc1)c1cc(-c2n[nH]c3ncccc23)c[nH]1` [Compound 18], the inhibition constant Ki is less than 500 nM. For the compound `CS(=O)(=O)Nc1cccc(CC(=O)Nc2cc(-c3n[nH]c4nccnc34)cs2)c1` [Compound 20], the Ki was less than 500 nM.

In a further assay the target is ROCK I (AA 6-553) (Homo sapiens, UniProt Q13464). Kind of assay: ROCK I coupled enzyme assay (enzyme-linked). As to conditions: 45 μM ATP, 200 μM peptide, 45 nM ROCK I, 30° C. It counts as biochemical. The protocol:
Compounds are screened for their ability to inhibit ROCK I (AA 6-553) activity using a standard coupled enzyme system (Fox et al. Protein Sci. 7: 2249, 1998). Reactions are carried out in a solution containing 100 mM HEPES (pH 7.5), 10 mM MgCl2, 25 mM NaCl, 2 mM DTT and 1.5% DMSO. Final substrate concentrations in the assay are 45 μM ATP (Sigma Chemicals, St Louis, Mo.) and 200 μM peptide (American Peptide, Sunnyvale, Calif.). Reactions are carried out at 30° C. and 45 nM ROCK I. Final concentrations of the components of the coupled enzyme system are 2.5 mM phosphoenolpyruvate, 350 μM NADH, 30 μg/ml pyruvate kinase and 10 μg/ml lactate dehydrogenase.
as §1
Compound `O=C(N[C@H](CO)c1ccccc1)c1cc(-c2n[nH]c3ncccc23)c[nH]1` [Compound 1] registered a Ki of less than 500 nM.
